From article PMC6152321, “High-Resolution Inhibition Profiling Combined with HPLC-HRMS-SPE-NMR for Identification of PTP1B Inhibitors from Vietnamese Plants” (Molecules : A Journal of Synthetic Chemistry and Natural …, 2017)

Columns and labels:
[1] = biological target: T1, Recombinant human protein tyrosine phosphatase 1B (PTP1B) (Homo sapiens, UniProt P18031); assay: In vitro PTP1B inhibition assay (pNPP hydrolysis, absorbance at 405 nm); format: biochemical; conditions: for IC50: isolated compounds, mean ± SD, n = 3
T1 construct: purchased Enzo Life Sciences Inc. BML-SE332-0050
T1 sequence (P18031 1-322 limits assumed): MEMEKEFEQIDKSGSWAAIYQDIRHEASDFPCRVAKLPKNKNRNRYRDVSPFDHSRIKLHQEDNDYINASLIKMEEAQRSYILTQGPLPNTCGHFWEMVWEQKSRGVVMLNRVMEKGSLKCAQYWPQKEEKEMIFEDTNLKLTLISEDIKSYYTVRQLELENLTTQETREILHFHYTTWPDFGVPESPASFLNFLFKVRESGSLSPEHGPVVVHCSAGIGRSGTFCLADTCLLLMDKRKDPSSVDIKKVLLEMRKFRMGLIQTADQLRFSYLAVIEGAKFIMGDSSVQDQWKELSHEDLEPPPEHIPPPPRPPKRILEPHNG
Experimental: (§1) Based on the method described by Tahtah et al., the PTP1B inhibition assay was performed at 25 °C using a two-component buffer, containing 50 mM Tris, 50 mM bis-Tris and 100 mM NaCl, adjusted to pH 7.0 with acetic acid. The final reaction volume was 180 µL, including 18 µL test sample dissolved in DMSO, 52 µL of buffer with 3.46 mM EDTA (final well concentrations 10% DMSO and 1 mM EDTA), and 60 µL of buffer with 1.5 mM pNPP and 6 mM DTT (final well concentrations 0.5 mM pNPP and 2 mM DTT). After preincubation at 25 °C for 10 min, the reaction was started by addition of 50 µL of 0.001 µg/µL PTP1B stock solution (final well concentration: 0.05 µg/well). The hydrolysis rate of pNPP to release p-nitrophenol was determined by measuring the absorbance at 405 nm every 30 s for 10 min. Preincubation and absorbance measurements were performed with a Multiscan FC microplate photometer with a built-in incubator (Thermo Scientific, Waltham, MA, USA) coupled to SkanIt version 2.5.1 software for data acquisition. The PTP1B inhibitory activity was expressed as percentage inhibition and was calculated using the following formula: % inhibition = (Slopeblank − Slopesample)/Slopeblank × 100
RK682 was used as a positive control and all measurements were performed in triplicate. Dose-response curves and IC50 values were obtained using GraFit version 5 (Erithacus Software Ltd., Horley, UK).

[2] = system: PTP1B; conditions: cited from earlier work; for IC50: read-out: IC50 against PTP1B
[3] = biological target: T1, Recombinant human protein tyrosine phosphatase 1B (PTP1B); assay: Kinetics of PTP1B inhibition (Lineweaver-Burk plots, Michaelis-Menten fit); format: biochemical; conditions: for Mode of Inhibition: from Lineweaver-Burk plots; for Ki: pNPP 0.125-4.0 mM, mean ± SD, n = 3
Experimental: as §1
Enzyme kinetics of isolated PTP1B inhibitors was measured in triplicate using the standard assay conditions described above. Reactions were carried out with increasing concentrations of pNPP (0.125, 0.25, 0.5, 1.0, 2.0 and 4.0 mM) as substrate in the absence and presence of test samples (4 concentrations). The mode of inhibition was determined graphically from the Lineweaver-Burk plots. Kinetic parameters were calculated by fitting the data to the Michaelis–Menten equation using non-linear regression analysis (GraphPad Prism 7.0, GraphPad Software Inc., La Jolla, CA, USA).

| SMILES | IC50 [1] [µM] | Mode of Inhibition [3] | Ki [3] [µM] | IC50 of RK682 ([1]; positive control in crude extract screening) [µg/mL] | PTP1B inhibition at 25 µM ([2]; concentration 25 µM) [%] | IC50 [2] [µM] |
| --- | --- | --- | --- | --- | --- | --- |
| CC1(C)C=Cc2cc(-c3coc4cc(O)cc(O)c4c3=O)ccc2O1 [Compound 1, isoderrone] | 22.7 ± 1.7 | Non-competitive | 21.3 ± 2.8 | – | 78 | – |
| CC1(C)C=Cc2c(cc3occ(-c4ccc(O)cc4)c(=O)c3c2O)O1 [Compound 3, alpinumisoflavone] | 21.2 ± 3.8 | Non-competitive | 14.3 ± 2 | – | – | 37.52 ± 0.31 |

Now those with a lower IC50 [1], led by results:

| IC50 [1] [µM] | Mode of Inhibition [3] | Ki [3] [µM] | IC50 of RK682 ([1]; positive control in crude extract screening) [µg/mL] | SMILES | PTP1B inhibition at 25 µM ([2]; concentration 25 µM) [%] | IC50 [2] [µM] |
| --- | --- | --- | --- | --- | --- | --- |
| 12.6 ± 1.6 | Non-competitive | 7.9 ± 1.9 | – | CC1(C)C=Cc2c(cc(O)c3c(=O)c(-c4ccc(O)cc4)coc23)O1 [Compound 2, derrone] | – | 20.63 ± 0.17 |
| 2.5 ± 0.2 | Non-competitive | 3 ± 0.5 | – | CC(C)=C[C@@H]1C[C@](C)(/C=C/c2cc(-c3coc4cc(O)cc(O)c4c3=O)ccc2O)Oc2ccc(-c3coc4cc(O)cc(O)c4c3=O)cc21 [Compound 4, mucusisoflavone B] | – | – |
| 10.4 ± 1.6 | – | – | 3.8 ± 0.6 | CCCCCCCCCCCCCCCC(=O)C1=C(O)C(CO)OC1=O (centres unmarked) [RK682, reference compound] | – | – |
